Source: the NIST ThermoML archive (doi:10.1021/je501041r)

Assay: xn = mol fraction of the nth substance listed
Conditions: 101 kPa, Liquid; for viscosity: Capillary tube (Ostwald / Ubbelohde) method; for mass density: Vibrating tube method

CCCCCCO [hexan-1-ol] + CC(C)CC(C)(C)C
Conditions | mass density [kg/m3] | viscosity [mPa·s]
298.15 K, x2 = 0 | 815.3 | 4.605
298.15 K, x2 = 0.1001 | 799.99 | 3.428
298.15 K, x2 = 0.2 | 785 | 2.565
298.15 K, x2 = 0.3001 | 770.65 | 1.933
298.15 K, x2 = 0.4 | 756.92 | 1.452
298.15 K, x2 = 0.5 | 743.89 | 1.124
298.15 K, x2 = 0.6001 | 731.33 | 0.899
298.15 K, x2 = 0.7001 | 719.63 | 0.737
298.15 K, x2 = 0.7997 | 708.41 | 0.621
298.15 K, x2 = 0.8998 | 697.73 | 0.536
298.15 K, x2 = 0.9199 | 695.61 | –
298.15 K, x2 = 0.9396 | 693.66 | –
298.15 K, x2 = 0.9595 | 691.69 | –
303.15 K, x2 = 0 | 811.71 | 3.944
303.15 K, x2 = 0.1001 | 796.32 | 2.958
303.15 K, x2 = 0.2 | 781.24 | 2.236
303.15 K, x2 = 0.3001 | 766.82 | 1.728
303.15 K, x2 = 0.4 | 753.03 | 1.306
303.15 K, x2 = 0.5 | 739.93 | 1.051
303.15 K, x2 = 0.6001 | 727.33 | 0.829
303.15 K, x2 = 0.7001 | 715.58 | 0.688
303.15 K, x2 = 0.7997 | 704.3 | 0.582
303.15 K, x2 = 0.8998 | 693.58 | 0.504
303.15 K, x2 = 0.9199 | 691.45 | –
303.15 K, x2 = 0.9396 | 689.52 | –
303.15 K, x2 = 0.9595 | 687.54 | –
308.15 K, x2 = 0 | 808.09 | 3.414
308.15 K, x2 = 0.1001 | 792.61 | 2.592
308.15 K, x2 = 0.2 | 777.46 | 1.965
308.15 K, x2 = 0.3001 | 762.96 | 1.536
308.15 K, x2 = 0.4 | 749.11 | 1.18
308.15 K, x2 = 0.5 | 735.95 | 0.941
308.15 K, x2 = 0.6001 | 723.29 | 0.775
308.15 K, x2 = 0.7001 | 711.48 | 0.643
308.15 K, x2 = 0.7997 | 700.16 | 0.546
308.15 K, x2 = 0.8998 | 689.39 | 0.476
308.15 K, x2 = 0.9199 | 687.26 | –
308.15 K, x2 = 0.9396 | 685.32 | –
308.15 K, x2 = 0.9595 | 683.35 | –
313.15 K, x2 = 0 | 804.43 | 2.96
313.15 K, x2 = 0.1001 | 788.88 | 2.275
313.15 K, x2 = 0.2 | 773.65 | 1.745
313.15 K, x2 = 0.3001 | 759.07 | 1.361
313.15 K, x2 = 0.4 | 745.15 | 1.071
313.15 K, x2 = 0.5 | 731.93 | 0.861
313.15 K, x2 = 0.6001 | 719.21 | 0.721
313.15 K, x2 = 0.7001 | 707.36 | 0.596
313.15 K, x2 = 0.7997 | 695.98 | 0.512
313.15 K, x2 = 0.8998 | 685.18 | 0.449
313.15 K, x2 = 0.9199 | 683.03 | –
313.15 K, x2 = 0.9396 | 681.09 | –
313.15 K, x2 = 0.9595 | 679.12 | –
318.15 K, x2 = 0 | 800.75 | 2.581
318.15 K, x2 = 0.1001 | 785.1 | 1.997
318.15 K, x2 = 0.2 | 769.8 | 1.577
318.15 K, x2 = 0.3001 | 755.15 | 1.23
318.15 K, x2 = 0.4 | 741.15 | 0.976
318.15 K, x2 = 0.5 | 727.88 | 0.807
318.15 K, x2 = 0.6001 | 715.1 | 0.658
318.15 K, x2 = 0.7001 | 703.19 | 0.559
318.15 K, x2 = 0.7997 | 691.77 | 0.483
318.15 K, x2 = 0.8998 | 680.92 | 0.424
318.15 K, x2 = 0.9199 | 678.78 | –
318.15 K, x2 = 0.9396 | 676.83 | –
318.15 K, x2 = 0.9595 | 674.86 | –
323.15 K, x2 = 0 | 797.02 | 2.251
323.15 K, x2 = 0.1001 | 781.29 | 1.778
323.15 K, x2 = 0.2 | 765.91 | 1.391
323.15 K, x2 = 0.3001 | 751.18 | 1.113
323.15 K, x2 = 0.4 | 737.12 | 0.894
323.15 K, x2 = 0.5 | 723.78 | 0.747
323.15 K, x2 = 0.6001 | 710.95 | 0.623
323.15 K, x2 = 0.7001 | 698.99 | 0.523
323.15 K, x2 = 0.7997 | 687.52 | 0.455
323.15 K, x2 = 0.8998 | 676.63 | 0.402
323.15 K, x2 = 0.9199 | 674.48 | –
323.15 K, x2 = 0.9396 | 672.54 | –
323.15 K, x2 = 0.9595 | 670.56 | –
